Where two headings read alike, the source gives them in different places. Where only a bound is given, the exact number is not on record here.

One may read the IC50 as the concentration at which inhibition is half-maximal. Low values mean inhibition by little substance, high ones a need for much substance.

One test deals with AR / CBP ternary complex (Homo sapiens, UniProt P10275+Q92793). Briefly: Ternary complex formation assay (sandwich ELISA, AR capture, CBP antibody detection) in VCaP cell lysates. In kind it is cell-based. In a few lines: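 VCaP cells in 5% charcoal-stripped FBS were cultured ≥3 days and then given bifunctional compound for 1.5 h. Lysates went onto AR-antibody-coated plates. Bound CBP (or p300) was detected with a rabbit antibody plus HRP anti-rabbit, using QuantaRed chemifluorescence (ex 570/em 585) read immediately, at 5 min and at 15 min.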
Chain of AR / CBP ternary complex (P10275 whole entry): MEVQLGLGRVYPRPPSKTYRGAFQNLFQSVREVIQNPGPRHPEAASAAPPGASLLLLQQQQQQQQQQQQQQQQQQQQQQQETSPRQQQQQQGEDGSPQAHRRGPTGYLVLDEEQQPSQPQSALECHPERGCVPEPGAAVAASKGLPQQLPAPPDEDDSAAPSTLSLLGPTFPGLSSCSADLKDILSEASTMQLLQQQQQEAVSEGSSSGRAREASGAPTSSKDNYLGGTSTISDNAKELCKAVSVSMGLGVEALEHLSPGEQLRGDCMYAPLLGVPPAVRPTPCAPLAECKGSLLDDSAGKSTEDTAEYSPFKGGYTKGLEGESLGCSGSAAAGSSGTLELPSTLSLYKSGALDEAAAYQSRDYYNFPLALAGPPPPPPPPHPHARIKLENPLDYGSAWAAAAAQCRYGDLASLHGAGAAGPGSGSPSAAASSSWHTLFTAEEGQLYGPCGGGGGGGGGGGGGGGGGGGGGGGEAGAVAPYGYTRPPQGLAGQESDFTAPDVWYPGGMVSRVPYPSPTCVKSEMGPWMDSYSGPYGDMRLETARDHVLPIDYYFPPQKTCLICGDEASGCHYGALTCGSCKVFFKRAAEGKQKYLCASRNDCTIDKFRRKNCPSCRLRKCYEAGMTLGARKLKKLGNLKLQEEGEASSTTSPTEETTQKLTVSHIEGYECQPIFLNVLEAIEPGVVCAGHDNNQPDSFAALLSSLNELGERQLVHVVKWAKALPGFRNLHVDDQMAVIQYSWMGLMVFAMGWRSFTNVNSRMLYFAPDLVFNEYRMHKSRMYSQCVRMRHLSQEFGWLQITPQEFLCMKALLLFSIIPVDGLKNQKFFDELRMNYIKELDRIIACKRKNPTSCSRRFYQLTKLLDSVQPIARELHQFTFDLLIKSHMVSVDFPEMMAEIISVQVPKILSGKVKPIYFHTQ
Chain of AR / CBP ternary complex (Q92793 2-2442): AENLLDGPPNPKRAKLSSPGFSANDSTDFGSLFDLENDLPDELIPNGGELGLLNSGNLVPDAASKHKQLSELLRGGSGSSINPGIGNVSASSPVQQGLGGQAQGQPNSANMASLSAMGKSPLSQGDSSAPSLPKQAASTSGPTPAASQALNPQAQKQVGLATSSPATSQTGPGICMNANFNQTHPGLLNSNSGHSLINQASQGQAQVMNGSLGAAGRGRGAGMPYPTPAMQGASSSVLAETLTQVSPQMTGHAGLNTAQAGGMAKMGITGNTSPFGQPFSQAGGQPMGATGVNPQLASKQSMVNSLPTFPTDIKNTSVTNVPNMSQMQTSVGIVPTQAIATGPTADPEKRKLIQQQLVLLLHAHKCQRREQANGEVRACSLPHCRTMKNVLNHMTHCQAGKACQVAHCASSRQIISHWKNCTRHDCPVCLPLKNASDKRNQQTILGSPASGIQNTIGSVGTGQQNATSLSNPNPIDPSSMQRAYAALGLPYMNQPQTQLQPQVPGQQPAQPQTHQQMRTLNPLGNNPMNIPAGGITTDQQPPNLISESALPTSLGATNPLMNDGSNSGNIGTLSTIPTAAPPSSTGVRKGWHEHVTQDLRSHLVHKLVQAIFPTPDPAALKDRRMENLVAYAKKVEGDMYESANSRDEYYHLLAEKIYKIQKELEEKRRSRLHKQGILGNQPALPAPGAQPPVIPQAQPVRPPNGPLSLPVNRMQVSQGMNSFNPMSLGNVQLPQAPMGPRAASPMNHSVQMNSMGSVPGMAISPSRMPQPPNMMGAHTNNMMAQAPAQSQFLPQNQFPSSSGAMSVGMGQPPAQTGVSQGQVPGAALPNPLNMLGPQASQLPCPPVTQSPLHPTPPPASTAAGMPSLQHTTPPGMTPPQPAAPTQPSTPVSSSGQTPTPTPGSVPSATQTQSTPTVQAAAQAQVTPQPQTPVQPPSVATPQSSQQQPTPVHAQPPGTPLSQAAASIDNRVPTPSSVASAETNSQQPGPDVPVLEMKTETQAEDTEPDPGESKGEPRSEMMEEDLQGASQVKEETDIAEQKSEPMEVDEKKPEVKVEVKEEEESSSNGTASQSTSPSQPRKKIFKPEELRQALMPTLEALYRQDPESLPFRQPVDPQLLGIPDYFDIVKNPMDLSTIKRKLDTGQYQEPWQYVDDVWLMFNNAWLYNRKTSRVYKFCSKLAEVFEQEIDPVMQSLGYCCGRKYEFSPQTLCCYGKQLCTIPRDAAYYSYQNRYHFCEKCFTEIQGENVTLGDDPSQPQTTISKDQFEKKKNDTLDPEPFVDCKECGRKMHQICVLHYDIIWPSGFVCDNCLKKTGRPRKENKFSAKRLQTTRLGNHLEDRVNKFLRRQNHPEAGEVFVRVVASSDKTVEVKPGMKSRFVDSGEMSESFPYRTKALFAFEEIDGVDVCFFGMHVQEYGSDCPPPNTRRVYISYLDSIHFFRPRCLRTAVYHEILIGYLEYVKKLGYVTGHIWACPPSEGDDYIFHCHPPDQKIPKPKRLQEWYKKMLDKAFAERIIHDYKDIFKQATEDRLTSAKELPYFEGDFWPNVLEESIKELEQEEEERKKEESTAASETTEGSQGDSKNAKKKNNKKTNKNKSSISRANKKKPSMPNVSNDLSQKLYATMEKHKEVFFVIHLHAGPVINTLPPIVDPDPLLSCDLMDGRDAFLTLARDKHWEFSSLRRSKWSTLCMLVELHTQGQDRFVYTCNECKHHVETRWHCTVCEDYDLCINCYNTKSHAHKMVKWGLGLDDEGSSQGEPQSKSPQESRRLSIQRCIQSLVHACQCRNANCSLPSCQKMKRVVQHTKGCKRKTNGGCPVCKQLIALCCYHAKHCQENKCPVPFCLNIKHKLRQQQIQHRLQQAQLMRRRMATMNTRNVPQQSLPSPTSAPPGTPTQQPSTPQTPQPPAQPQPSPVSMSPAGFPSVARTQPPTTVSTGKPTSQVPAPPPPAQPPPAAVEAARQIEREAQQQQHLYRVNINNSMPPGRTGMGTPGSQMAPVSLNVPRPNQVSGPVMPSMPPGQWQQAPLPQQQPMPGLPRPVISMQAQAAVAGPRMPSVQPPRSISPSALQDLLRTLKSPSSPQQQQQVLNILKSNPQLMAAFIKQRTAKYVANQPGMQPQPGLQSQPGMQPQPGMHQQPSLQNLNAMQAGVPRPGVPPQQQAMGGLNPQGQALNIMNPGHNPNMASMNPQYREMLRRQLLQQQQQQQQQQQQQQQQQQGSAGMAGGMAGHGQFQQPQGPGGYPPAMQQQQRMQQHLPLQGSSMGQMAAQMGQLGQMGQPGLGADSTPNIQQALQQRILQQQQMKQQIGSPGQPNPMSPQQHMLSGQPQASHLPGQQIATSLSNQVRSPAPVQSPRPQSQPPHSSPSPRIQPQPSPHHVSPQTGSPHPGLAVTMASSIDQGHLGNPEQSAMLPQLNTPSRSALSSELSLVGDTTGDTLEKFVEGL
(ELISA stands for enzyme-linked immunosorbent assay.)

The test system of a further test is VCaP cells. The test is described as follows: VCaP growth inhibition assay (CTG). In kind it is cell-based. The conditions noted are these: Homo sapiens, 216 h, 30 pM R1881, 9 days. In a few lines: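 VCaP cells in phenol red-free DMEM with 5% charcoal-stripped serum were stimulated with 30 pM R1881 (final) and treated with compound from 100 nM to 10 fM final (1:5 dilutions) for 9 days at 37 °C. Viability was read by CellTiter-Glo luminescence, and IC50 came from 4-parameter logistic fits.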

The mark [1] stands for this setting: treated 1.5 hours, rabbit CBP or p300 antibody detection, average, read-out: Average Ternary Complex.

As to `CC(=O)N1CCc2c(c(N3CCCc4cc(-c5cnn(C)c5)c(C(F)F)cc43)nn2C2CCN(C3CC4(C3)CN(c3ccc(C(=O)N[C@H]5CC[C@H](Oc6ccc(C#N)c(Cl)c6)CC5)nn3)C4)CC2)C1` [Compound 229, 6-[6-[4-[5-acetyl-3-[7-(difluoromethyl)-6-(1-methylpyrazol-4-yl)-3,4-dihydro-2H-quinolin-1-yl]-6,7-dihydro-4H-pyrazolo[4,3-c]pyridin-1-yl]-1-piperidyl]-2-azaspiro[3.3]heptan-2-yl]-N-[4-(3-chloro-4-cyano-phenoxy)cyclohexyl]pyridazine-3-carboxamide], the EC50 at AR / CBP ternary complex (setting [1]) was less than 1 nM. Also, the IC50 with VCaP cells is not above 0.1 nM.
For the molecule `Cn1c(=O)n(C)c2cc(N3CCCc4cc(-c5ccc(CCC6CCN(c7ccc(C(=O)N[C@H]8CC[C@H](Oc9ccc(C#N)c(Cl)c9)CC8)nn7)CC6)nc5)c(C(F)F)cc43)ccc21` [Compound 53, N-[4-(3-chloro-4-cyano-phenoxy)cyclohexyl]-6-[4-[2-[5-[7-(difluoromethyl)-1-(1,3-dimethyl-2-oxo-benzimidazol-5-yl)-3,4-dihydro-2H-quinolin-6-yl]-2-pyridyl]ethyl]-1-piperidyl] pyridazine-3-carboxamide], the EC50 on AR / CBP ternary complex (read-out: Average Ternary Complex, treated 1.5 hours, rabbit CBP or p300 antibody detection) was less than 1 nM. Further, the IC50 in the test with VCaP cells is more than 100 nM.
With `CC(=O)N1CCc2c(c(N3CCCc4cc(-c5cnn(C)c5)c(C(F)F)cc43)nn2[C@H]2CC[C@H](N3CCC4(CC3)CC(Oc3ccc(C(=O)N[C@H]5CC[C@H](Oc6ccc(C#N)c(Cl)c6)CC5)nn3)C4)CC2)C1` [Compound 248], on AR / CBP ternary complex (setting [1]), the EC50 was less than 1 nM. In the test on VCaP cells, the IC50 was in the range of 0.1 to 1 nM.
For `CC(=O)N1CCc2c(c(-c3cccc4nc(-c5cnn(CCC6CCN(c7ccc(C(=O)N[C@H]8CC[C@H](Oc9ccc(C#N)c(Cl)c9)CC8)nn7)CC6)c5)ncc34)nn2C2CCOCC2)C1` [Compound 70], in that order: less than 1 nM and 0.1 to 1 nM.
`CC(=O)N1CCc2c(c(N3CCCc4cc(-c5cnn(C)c5)c(C(F)F)cc43)nn2C2CCN(C3CC4(CCC(Oc5ccc(C(=O)N[C@H]6CC[C@H](Oc7ccc(C#N)c(Cl)c7)CC6)nn5)CC4)C3)CC2)C1` (some centres unmarked) [Compound 252, 6-[2-[4-[5-acetyl-3-[7-(difluoromethyl)-6-(1-methylpyrazol-4-yl)-3,4-dihydro-2H-quinolin-1-yl]-6,7-dihydro-4H-pyrazolo[4,3-c]pyridin-1-yl]-1-piperidyl]spiro[3.5]nonan-7-yl]oxy-N-[4-(3-chloro-4-cyano-phenoxy)cyclohexyl]pyridazine-3-carboxamide]: at AR / CBP ternary complex (setting [1]), the EC50 is less than 1 nM. The molecule also showed an IC50 in the test on VCaP cells not above 0.1 nM.
For `COc1cc2c(cn1)N(c1nn(C3CCN(CC4CCN(c5ccc(C(=O)N[C@H]6CC[C@H](Oc7ccc(C#N)c(Cl)c7)CC6)nn5)CC4)CC3)c3c1CN(C(C)=O)CC3)CCC2` [Compound 109, 6-[4-[[4-[5-acetyl-3-(6-methoxy-3,4-dihydro-2H-1,7-naphthyridin-1-yl)-6,7-dihydro-4H-pyrazolo[4,3-c]pyridin-1-yl]-1-piperidyl]methyl]-1-piperidyl]-N-[4-(3-chloro-4-cyano-phenoxy)cyclohexyl]pyridazine-3-carboxamide], in that order: 10 to 100 nM and 0.1 to 1 nM.
As to `CC(=O)N1CCc2c(c(N3CCCc4cc(-c5cnn(C)c5)c(C(F)F)cc43)nn2C2CCN(C[C@H]3CCN(c4ccc(C(=O)N[C@H]5CC[C@H](Oc6ccc(C#N)c(Cl)c6)CC5)nn4)C[C@@H]3C)CC2)C1` [Compound 104, 6-[4-[[4-[5-acetyl-3-[7-(difluoromethyl)-6-(1-methylpyrazol-4-yl)-3,4-dihydro-2H-quinolin-1-yl]-6,7-dihydro-4H-pyrazolo[4,3-c]pyridin-1-yl]-1-piperidyl]methyl]-3-methyl-1-piperidyl]-N-[4-(3-chloro-4-cyano-phenoxy)cyclohexyl]pyridazine-3-carboxamide], on AR / CBP ternary complex (setting [1]), the EC50 is less than 1 nM. In the test on VCaP cells, this molecule displayed an IC50 not above 0.1 nM.
In the case of `CC(=O)N1CCc2c(c(-c3cccc4cc(-c5cnn(CCOC6CCN(c7ccc(C(=O)N[C@H]8CC[C@H](Oc9ccc(C#N)c(Cl)c9)CC8)nn7)CC6)c5)ncc34)nn2C2CCOCC2)C1` [Compound 26, 6-[4-[2-[4-[8-(5-acetyl-1-tetrahydropyran-4-yl-6,7-dihydro-4H-pyrazolo[4,3-c]pyridin-3-yl)-3-isoquinolyl]pyrazol-1-yl]ethoxy]-1-piperidyl]-N-[4-(3-chloro-4-cyano-phenoxy)cyclohexyl]pyridazine-3-carboxamide], the EC50 on AR / CBP ternary complex (setting [1]) is less than 1 nM. The molecule further had an IC50 in the test with VCaP cells not above 0.1 nM.
For `CC(=O)N1CCc2c(c(N3CCCc4cc(-c5cnn(C)c5)c(C(F)F)cc43)nn2C2CCC3(CC2)CC(Oc2ccc(C(=O)N[C@H]4CC[C@H](Oc5ccc(C#N)c(C(F)(F)F)c5)CC4)nn2)C3)C1` (some centres unmarked) [Compound 246, 6-[7-[5-acetyl-3-[7-(difluoromethyl)-6-(1-methylpyrazol-4-yl)-3,4-dihydro-2H-quinolin-1-yl]-6,7-dihydro-4H-pyrazolo[4,3-c]pyridin-1-yl]spiro[3.5]nonan-2-yl]oxy-N-[4-[4-cyano-3-(trifluoromethyl)phenoxy]cyclohexyl]pyridazine-3-carboxamide] the same measures were less than 1 nM and 1 to 100 nM.
For `CC(=O)N1CCc2c(c(N3CCCc4cc(-c5cnn(C)c5)c(C(F)F)cc43)nn2C2CCN(CC3CCN(c4ccc(C(=O)N[C@H]5CC[C@H](Oc6ccc(C#N)c(Cl)c6)CC5)nn4)CC3)CC2)C1` [Compound 16, 6-[4-[[4-[5-acetyl-3-[7-(difluoromethyl)-6-(1-methylpyrazol-4-yl)-3,4-dihydro-2H-quinolin-1-yl]-6,7-dihydro-4H-pyrazolo[4,3-c]pyridin-1-yl]-1-piperidyl]methyl]-1-piperidyl]-N-[4-(3-chloro-4-cyano-phenoxy)cyclohexyl]pyridazine-3-carboxamide] the same measures were less than 1 nM and not above 0.1 nM.
As to `CC(=O)N1CCc2c(c(N3CCCc4cc(-c5cnn(C)c5)c(C(F)F)cc43)nn2C2CCN(CC3C(C)CN(c4ccc(C(=O)N[C@H]5CC[C@H](Oc6ccc(C#N)c(Cl)c6)CC5)nn4)CC3C)CC2)C1` (some centres unmarked) [Compound 217, 6-[4-[[4-[5-acetyl-3-[7-(difluoromethyl)-6-(1-methylpyrazol-4-yl)-3,4-dihydro-2H-quinolin-1-yl]-6,7-dihydro-4H-pyrazolo[4,3-c]pyridin-1-yl]-1-piperidyl]methyl]-3,5-dimethyl-1-piperidyl]-N-[4-(3-chloro-4-cyano-phenoxy)cyclohexyl]pyridazine-3-carboxamide], the EC50 at AR / CBP ternary complex (setting [1]) was less than 1 nM. Besides, the IC50 in the test on VCaP cells is not above 0.1 nM.
For `CC(=O)N1CCc2c(c(N3CCCc4cc(C#N)ccc43)nn2C2CC3(C2)CN(C(=O)C2CC4(C2)CN(c2ccc(C(=O)N[C@H]5CC[C@H](Oc6ccc(C#N)c(Cl)c6)CC5)nn2)C4)C3)C1` (some centres unmarked) [Compound 44, 6-[6-[6-[5-acetyl-3-(6-cyano-3,4-dihydro-2H-quinolin-1-yl)-6,7-dihydro-4H-pyrazolo[4,3-c]pyridin-1-yl]-2-azaspiro [3.3]heptane-2-carbonyl]-2-azaspiro[3.3]heptan-2-yl]-N-[4-(3-chloro-4-cyano-phenoxy)cyclohexyl] pyridazine-3-carboxamide] the same measures were less than 1 nM and 0.1 to 1 nM.
For `CC(=O)N1CCc2c(c(-c3cccc4cc(-c5ccc(CCC6CCN(c7ccc(C(=O)N[C@H]8CC[C@H](Oc9ccc(C#N)c(Cl)c9)CC8)nn7)CC6)cc5)ncc34)nn2C2CCOCC2)C1` [Compound 153, 6-[4-[2-[4-[8-(5-acetyl-1-tetrahydropyran-4-yl-6,7-dihydro-4H-pyrazolo[4,3-c]pyridin-3-yl)-3-isoquinolyl]phenyl]ethyl]-1-piperidyl]-N-[4-(3-chloro-4-cyano-phenoxy)cyclohexyl]pyridazine-3-carboxamide] the same measures were less than 1 nM and not above 0.1 nM.
For `CC(=O)N1CCc2c(c(N3CCCc4cc(-c5cnn(C)c5)c(C(F)F)cc43)nn2[C@H]2CC[C@@H](N3CCC4(CC3)CN(c3ccc(C(=O)N[C@H]5CC[C@H](Oc6ccc(C#N)c(Cl)c6)CC5)nn3)C4)CC2)C1` [Compound 192, 6-[7-[4-[5-acetyl-3-[7-(difluoromethyl)-6-(1-methylpyrazol-4-yl)-3,4-dihydro-2H-quinolin-1-yl]-6,7-dihydro-4H-pyrazolo[4,3-c]pyridin-1-yl]cyclohexyl]-2,7-diazaspiro[3.5]nonan-2-yl]-N-[4-(3-chloro-4-cyano-phenoxy)cyclohexyl]pyridazine-3-carboxamide], in that order: less than 1 nM and not above 0.1 nM.
`CC(=O)N1CCc2c(c(N3CCCc4cc(-c5cnn(C)c5)c(C(F)F)cc43)nn2C2CC3(C2)CN(CC2CC4(C2)CN(c2ccc(C(=O)N[C@H]5CC[C@H](Oc6ccc(C#N)c(Cl)c6)CC5)nn2)C4)C3)C1` (some centres unmarked) [Compound 41, 6-[6-[[6-[5-acetyl-3-[7-(difluoromethyl)-6-(1-methylpyrazol-4-yl)-3,4-dihydro-2H-quinolin-1-yl]-6,7-dihydro-4H-pyrazolo[4,3-c]pyridin-1-yl]-2-azaspiro [3.3]heptan-2-yl]methyl]-2-azaspiro [3.3]heptan-2-yl]-N-[4-(3-chloro-4-cyano-phenoxy)cyclohexyl] pyridazine-3-carboxamide]: on AR / CBP ternary complex (setting [1]), the EC50 is less than 1 nM. In the test with VCaP cells, this molecule yielded an IC50 not above 0.1 nM.
With `CC(=O)N1CCc2c(c(-c3cccc4cc(C)ncc34)nn2C2CCN(CC3CCN(c4ccc(C(=O)N[C@H]5CC[C@H](Oc6ccc(C#N)c(Cl)c6)CC5)nn4)CC3)CC2)C1` [Compound 122, -[4-[[4-[5-acetyl-3-(3-methyl-8-isoquinolyl)-6,7-dihydro-4H-pyrazolo[4,3-c]pyridin-1-yl]-1-piperidyl]methyl]-1-piperidyl]-N-[4-(3-chloro-4-cyano-phenoxy)cyclohexyl]pyridazine-3-carboxamide], on AR / CBP ternary complex (setting [1]), the EC50 is less than 1 nM. Besides, the IC50 with VCaP cells lay in the range of 0.1 to 1 nM.

(Values after US20250136578A1 (Kolm Therapeutics Inc., priority 2023, published 2025).)
